# What was measured:
# CIA mice = test: Collagen-induced arthritis (CIA) mouse model; format: in vivo
# From the text: FIGS. 10A, 10B, 10C, 10D, and 10E show histology and histological scores in ankles collected at the end of the experiments. At the end of the experiment, ankle bones were collected and decalcified in EDTA for 10 days. Decalcified bones were embedded and sagittal sections obtained and stained. H&E staining was used to help score cell infiltration, synovial thickness, and bone damage (FIG. 10A). In the figure, safranin staining will help to score cartilage damage. Black arrows show infiltration in arthritic mice treated with PBS compared to control mice without arthritis. White arrows show lack of safranin staining in the arthritic mice cartilage because of proteoglycan degradation compared to control mice without arthritis.
# In the examples below, mice were used in a collagen-induced arthritis (CIA) model, a commonly used model to examine pathogenesis of rheumatoid arthritis. […] At day 0, mice were immunized with type II collagen/CFA. […] Arthritis onset subsequently occurs 4-10 days after the day 28 LPS injection. The experimental groups consisted of four groups: group 1: 6 CIA mice treated with vehicle; group 2: 6 CIA mice treated with […] SPL-108 twice a day, starting at arthritis onset (between day 32 to 36); group 3: 6 CIA mice treated with 100 mg/kg SPL-108 twice a day, starting at arthritis onset (between day 32 to 36); and group 4: 6 mice without CIA and not treated (negative control). In preventive strategies, a prophylactic treatment of SPL-108 would be started at day 0, at the time of first immunization.
# FIGS. 10A, 10B, 10C, 10D, and 10E show histological scores of ankle bones collected at the end of experiments. At the end of the experiment, ankles were collected and decalcified in EDTA for 10 days. They were embedded and sagittal sections were obtained and stained. H&E staining was used to help score cell infiltration, synovial thickness, and bone damage. In the figure, safranin staining will help to score cartilage damage. Black arrows show infiltration in arthritic mice treated with PBS compared to control mice without arthritis. White arrows show lack of safranin staining (red) in the arthritic mice cartilage because of proteoglycan degradation compared to control mice without arthritis.
# [1] = system: fibroblast-like synoviocytes (FLSs); test: In vitro Matrigel invasion assay of FLSs; format: cell-based; details: 0.1, 1.0, 10.0, 100 μM; presence and absence of PDGF 10 ng/mL
# Procedure: FIG. 8A and FIG. 8B show the effects of SPL-108 (A6) on the invasion of FLSs using an in vitro Matrigel invasion assay. Platelet-derived growth factor (10 ng/mL) was used to stimulate invasion and the area of invasion was measured in […] before and after the addition of 0.1, 1.0, 10.0, and 100 μM SPL-108 (A6) in the presence and absence of PDGF.
# [2] = system: fibroblast-like synoviocytes (FLSs); test: In vitro Scratch migration assay of FLSs; format: cell-based; details: 0.1, 1.0, 10.0, 100 μM
# Procedure: Cells were grown to confluence and a thin “wound” was introduced by scratching with a pipette tip. Cells at the wound edge polarize and migrate into the wound space.
# [3] = system: pre-existing osteoarthritis; test: Osteoarthritis symptoms in ovarian cancer patients on SPL-108 plus paclitaxel; format: in vivo, human; details: two patients; SPL-108 150 mg twice a day with paclitaxel 80 mg/m^2 weekly on Days 1, 8, 15, three 28-day cycles
# Procedure: Two patients diagnosed with […] ovarian cancer, and enrolled in a clinical trial for evaluating the efficacy of SPL-108 in combination with paclitaxel (standard-of-care treatment), reported relief from symptoms of pre-existing osteoarthritis. Each patient received SPL-108 150 mg twice a day and Paclitaxel 80 mg/m^2 weekly on Days 1, 8, and 15, in three 28-day cycles. Each patient received a total of 25,200 mg of SPL-108 over the course of treatment.
# [4] = system: arthritis-induced osteoclastogenesis; details: other animal studies; cited from earlier work
# [5] = ankles at end of experiment, H&E staining
# [6] = either dose (50 or 100 mg/kg twice a day)
substance,measurement,setting,value
Ac-KPSSPPEE-NH2 [SPL-108],"clinical score vs vehicle, significance",CIA mice; 50 mg/kg twice a day,"significantly different at day 4, 5, 6, 7"
same,"paw swelling vs vehicle, significance",CIA mice; 50 mg/kg twice a day,significantly different from day 11 to day 19
same,"body weight vs vehicle, significance",CIA mice; 50 mg/kg twice a day from arthritis onset,significantly different at day 7 and 9
same,"clinical score vs vehicle, significance",CIA mice; 100 mg/kg twice a day,significantly different from day 4 to day 20
same,"paw swelling vs vehicle, significance",CIA mice; 100 mg/kg twice a day,significantly different from day 11 to day 19
same,"body weight vs vehicle, significance",CIA mice; 100 mg/kg twice a day from arthritis onset,"significantly different at day 5, 7, 9 and 11"
same,body weight decrease,"CIA mice; CIA mice, through 11 days after disease onset, vehicle 3 grams decrease",~1 gram
same,bone damage (histological score),CIA mice; [5],reduction
same,synovial hypertrophy (histological score),CIA mice; [5],reduction
same,synovial infiltration (histological score),CIA mice; [5],reduction
same,cartilage damage (histological score),"CIA mice; ankles at end of experiment, safranin staining",reduction
same,clinical score compared to vehicle,CIA mice; [6],lower
same,paw swelling (paw size) compared to vehicle,CIA mice; [6],lower
same,invasion of FLSs (area of invasion),[1],inhibited the invasion of FLSs in a dose-dependent manner
same,migration of FLSs into wound space,[2],inhibited the migration of FLSs in a dose-dependent manner
same,improvement in osteoarthritis symptoms,[3],reduction to elimination of joint pain
same,arthritis-induced osteoclastogenesis,[4],inhibited arthritis-induced osteoclastogenesis

# Source: US20220125893A1, “METHODS FOR TREATING ARTHRITIS USING SPL-108 PEPTIDE” (Splash Pharmaceuticals, Inc., priority 2019, published 2022)
